Patent US7503965B2, “Azo compound, ink composition, and colored object” (Nippon Kayaku Kabushiki Kaisha, priority 2004, dated 2009)

Assay: solubility in water (ammonia alkali) by filter paper spot
Format: physicochemical
Conditions: aqueous buffer

solubility, ≥ 100 mg/mL:
Nc1c(N=Nc2ccc3c(O)c(N=Nc4ccc(N=Nc5c(C(=O)O)nn(-c6ccc(S(=O)(=O)O)cc6)c5O)c(S(=O)(=O)O)c4)c(S(=O)(=O)O)cc3c2S(=O)(=O)O)cc(S(=O)(=O)O)c2cc(S(=O)(=O)O)c(N=Nc3ccc([N+](=O)[O-])cc3S(=O)(=O)O)c(O)c12 [compound 1], Nc1c(N=Nc2ccc3c(O)c(N=Nc4cc(S(=O)(=O)O)c(N=Nc5c(C(=O)O)nn(-c6ccc(S(=O)(=O)O)cc6)c5O)cc4S(=O)(=O)O)c(S(=O)(=O)O)cc3c2S(=O)(=O)O)cc(S(=O)(=O)O)c2cc(S(=O)(=O)O)c(N=Nc3ccc([N+](=O)[O-])cc3S(=O)(=O)O)c(O)c12 [compound 9], Nc1c(N=Nc2ccc3c(O)c(N=Nc4ccc(S(=O)(=O)O)c(/N=N/c5c(C(=O)O)nn(-c6ccc(S(=O)(=O)O)cc6)c5O)c4)c(S(=O)(=O)O)cc3c2S(=O)(=O)O)cc(S(=O)(=O)O)c2cc(S(=O)(=O)O)c(N=Nc3ccc([N+](=O)[O-])cc3S(=O)(=O)O)c(O)c12 [compound 13], Nc1c(N=Nc2ccc3c(O)c(N=Nc4ccc(N=Nc5c(C(=O)O)nn(-c6cc(S(=O)(=O)O)ccc6S(=O)(=O)O)c5O)c(S(=O)(=O)O)c4)c(S(=O)(=O)O)cc3c2S(=O)(=O)O)cc(S(=O)(=O)O)c2cc(S(=O)(=O)O)c(N=Nc3ccc([N+](=O)[O-])cc3S(=O)(=O)O)c(O)c12 [compound 21], Nc1c(N=Nc2ccc3c(O)c(N=Nc4ccc(N=Nc5c(C(=O)O)nn(-c6ccc(S(=O)(=O)O)cc6)c5O)c(S(=O)(=O)O)c4)c(S(=O)(=O)O)cc3c2S(=O)(=O)O)cc(S(=O)(=O)O)c2cc(S(=O)(=O)O)c(N=Nc3ccc(S(=O)(=O)O)cc3[N+](=O)[O-])c(O)c12 [compound 22], Nc1c(N=Nc2ccc3c(O)c(N=Nc4cc(S(=O)(=O)O)c(N=Nc5c(C(=O)O)nn(-c6ccc(S(=O)(=O)O)cc6)c5O)cc4S(=O)(=O)O)c(S(=O)(=O)O)cc3c2S(=O)(=O)O)cc(S(=O)(=O)O)c2cc(S(=O)(=O)O)c(N=Nc3ccc(S(=O)(=O)O)cc3[N+](=O)[O-])c(O)c12 [compound 23], COc1cc([N+](=O)[O-])c(S(=O)(=O)O)cc1N=Nc1c(S(=O)(=O)O)cc2c(S(=O)(=O)O)cc(N=Nc3ccc4c(O)c(N=Nc5ccc(N=Nc6c(C(=O)O)nn(-c7ccc(S(=O)(=O)O)cc7)c6O)c(S(=O)(=O)O)c5)c(S(=O)(=O)O)cc4c3S(=O)(=O)O)c(N)c2c1O [compound 24], Nc1c(N=Nc2ccc3c(O)c(N=Nc4cc(Cl)c(N=Nc5c(C(=O)O)nn(-c6ccc(S(=O)(=O)O)cc6)c5O)c(S(=O)(=O)O)c4)c(S(=O)(=O)O)cc3c2S(=O)(=O)O)cc(S(=O)(=O)O)c2cc(S(=O)(=O)O)c(N=Nc3ccc([N+](=O)[O-])cc3S(=O)(=O)O)c(O)c12 [compound 25], Nc1c(N=Nc2ccc3c(O)c(N=Nc4cc(C(=O)O)c(N=Nc5c(C(=O)O)nn(-c6ccc(S(=O)(=O)O)cc6)c5O)c(S(=O)(=O)O)c4)c(S(=O)(=O)O)cc3c2S(=O)(=O)O)cc(S(=O)(=O)O)c2cc(S(=O)(=O)O)c(N=Nc3ccc([N+](=O)[O-])cc3S(=O)(=O)O)c(O)c12 [compound 26], Nc1c(N=Nc2ccc3c(O)c(N=Nc4ccc(N=Nc5c(C(=O)O)nn(-c6cc(C(=O)O)cc(C(=O)O)c6)c5O)c(S(=O)(=O)O)c4)c(S(=O)(=O)O)cc3c2S(=O)(=O)O)cc(S(=O)(=O)O)c2cc(S(=O)(=O)O)c(N=Nc3ccc([N+](=O)[O-])cc3S(=O)(=O)O)c(O)c12 [compound 27]
